Experimental data as given in patent US20220193085A1, “METHODS OF THROMBOPROPHYLAXIS” (JANSSEN PHARMACEUTICALS, INC., priority 2020, published 2022).
Several values for one entry are separate records, joined by “and”; a condition that tells them apart may be missing. Equal entries are not always repeated. Entries after “also recorded” stand apart in the source; their conditions may differ. Where two headings read alike, the source gives them in different places.

Tests used:
[1] = clinical; conditions: human, plasma, oral
Description: (§1) Rivaroxaban was administered twice daily (BID) in an open-label fashion as a 0.1% (1 mg/mL) oral suspension based on weight as shown in Table 2 (not related to prandial state).
(§2) Blood samples were collected for PK (i.e., plasma rivaroxaban concentrations) and full PD (prothrombin time [PT], activated partial thromboplastin time [aPTT], and anti-factor Xa activity) assessments on the first day of dosing between 0.5 to 1.5 hours and again between 1.5 to 4.0 hours postdose. Additional samples were collected on Day 4, just prior to rivaroxaban administration (PK, PT, aPTT) and again between 0.5 to 1.5 hours (PK, PT, aPTT), 1.5 to 4.0 hours (PK, PT, aPTT), and 6.0 to 8.0 hours (PK and full PD) postdose. At Month 3, samples were collected just prior to rivaroxaban dosing (PK and full PD) and at 0.5 to 1.5 hours postdose (PK, PT, aPTT) and 2.5 to 4 hours postdose (PK, PT, aPTT). An additional random sample (PK, PT, and aPTT) was collected at Month 12.
(§3) In Part B, blood samples were collected for assessment of PT and aPTT before the first dosing; PK and full PD samples were collected between 0.5 to 1.5 hours and again between 1.5 to 4.0 hours after the first dose. At Month 3, PK and full PD samples were collected just prior to rivaroxaban administration and again between 0.5 to 1.5 hours, and 2.5 to 4.0 hours postdose. An additional random sample (PK, PT, and aPTT) was collected at Month 12.
(§4) Blood samples for PK or PD assays were centrifuged, and the resulting plasma samples were frozen and stored below −15° C. until analyzed. Rivaroxaban plasma concentrations were determined using the validated liquid chromatography/mass spectrometry/mass spectrometry (LC-MS/MS) method with a lower limit of quantitation (LLOQ) of 0.5 μg/L. The pharmacodynamic effects of rivaroxaban were assessed by evaluation of prothrombin time (PT), activated partial thromboplastin time (aPTT), and anti-Factor Xa activity (AXA).
(§5) Patients in Part A received their first dose of rivaroxaban oral suspension on Day 1 (on site) and then continued taking rivaroxaban twice daily for 12 days (+9 days) to achieve steady state. PK and PD samples were collected on Day 1 and Day 4 (+2 days) of rivaroxaban administration (Table 3).
(§6) Part A, individual empirical Bayesian post-hoc PK parameters were derived using the existing population PK model from the Einstein Jr program (with the NONMEM option: $ESTIMATION MAXEVAL=0).
(§7) The population PK model used for the rivaroxaban PK profile evaluation was based on the Einstein Jr program. The pharmacokinetics of rivaroxaban were described by a linear two-compartment model with first-order oral absorption and first-order elimination from the central compartment with the absorption rate constant (KA), apparent clearance of the central compartment (CL/F), apparent central volume of distribution (Vc/F), apparent peripheral volume of distribution (Vp/F), and transport rate between the central and peripheral compartments (CI) as structural model parameters. CL/F, Q/F, Vp/F, and Vc/F were fig. allometrically scaled with body weight. Inter-individual variability (IIV) was identified for KA and CL/F. Residual error was described by a proportional error model.

[2] = Benefit-risk assessment: excess number of events per 1,000 subjects, Part B rivaroxaban vs aspirin
Description: Benefit-risk balance was assessed using excess number of events defined as the absolute proportion difference between the Part B rivaroxaban and aspirin groups scaled to 1,000 subjects to reflect benefits and risks on a population level.

[3] = 10 mg QD, N=140, cited from earlier work
[4] = UNIVERSE adverse events, serious adverse events and treatment discontinuation; type: in vivo, pediatric patients
From the text: Other safety outcomes: Any adverse events and serious adverse events (SAES).

[5] = UNIVERSE study: population PK and steady-state exposure of rivaroxaban in post-Fontan pediatric patients
Description: as §1, §2, §3, §4, §5, §6, §7

[6] = test system: prothrombin time (PT), activated partial thromboplastin time (aPTT); experiment: UNIVERSE PK/PD: PT and aPTT vs plasma rivaroxaban concentration; type: in vivo, pediatric patients; conditions: UNIVERSE vs adult studies ODIXa-HIP2 and ODIXa-KNEE
Description: PT and aPTT were determined using an electromagnetic mechanical clot detection method at ARUP laboratory (Salt Lake City, Utah, USA). The PT assay was performed according to the manufacturers' instructions on the STA Compact Hemostasis Workstation (STA Compact coagulation analyzer) using one PT reagent (STA-Neoplastine CI Plus, Diagnostica Stago, Inc), with an International Sensitivity Index (ISI) of around 1.3. The primary read-out for PT was in seconds, as the International Normalization Ratio (INR) which allows for comparison of PT values regardless of the reagents and instruments used for its determination, is only calibrated and validated for VKA and cannot be used for any other anticoagulant without validation. The PT reportable range is between 10 and 120 seconds. […] The read-out for aPTT is in seconds with a reportable range between 5 and 180 seconds. Anti-Factor Xa activity was determined at Eurofins Biomnis (France). Anti-Factor Xa activity was measured using a one-step reaction based on the inhibitory effect of rivaroxaban against factor Xa's activity of generating thrombin from prothrombin after adding rivaroxaban into the plasma-substrate mixture using the STA-COMPACT MAX2® system (Diagnostica Stago, Asnieres-sur-Seine, France). […] The calibration range of the assay is 35 to 500 ng/mL, and the lower limit of quantification (LLOQ) is 35 ng rivaroxaban/mL. […]

[7] = Part B rivaroxaban minus aspirin, up to end of treatment, full analysis set
[8] = Part B rivaroxaban vs aspirin, negative values favor rivaroxaban
[9] = Part B rivaroxaban vs aspirin, positive values favor aspirin
[10] = for 1,000 subjects treated with rivaroxaban
[11] = Part A N=12, treatment-emergent, safety set
[12] = Part B rivaroxaban N=64, aspirin N=34, safety set
[13] = Part B rivaroxaban N=64, aspirin N=34, treatment-emergent, safety set
[14] = Part B rivaroxaban N=64, aspirin N=34, up to end of treatment, full analysis set
[15] = UNIVERSE Part A, weight-based dose regimen BID, N=12
[16] = UNIVERSE all patients, weight-based dose regimen BID, N=76
[17] = full UNIVERSE data-set, population PK model
[18] = full UNIVERSE data-set, subject with body weight of 15 kg

For O=C(NC[C@H]1CN(c2ccc(N3CCOCC3=O)cc2)C(=O)O1)c1ccc(Cl)s1 [Rivaroxaban, 5-chloro-N-({(5S)-2-oxo-3-[4-(3-oxo-4-morpholinyl)phenyl]-1,3,oxazolidin-5-yl}methyl)-2-thiophenecarboxamide], the AUC(0-t) [1] was 1480 ng·h/mL, the Cmax [1] was 124 ng/mL and the “Excess number of events: CRNM bleeding” value [2, 7] was −25.7 events per 1,000 subjects. For the same compound, the “Excess number of events: SAEs” value [2, 7] was 46.0 events per 1,000 subjects, the “Excess number of events: all-cause mortality” value [2, 7] was 0.0 events per 1,000 subjects and the “Excess number of events: any thrombotic event (primary efficacy outcome)” value [2, 7] was −72.6 events per 1,000 subjects. The “Excess number of events: arterial/intracardiac thrombosis” value [2, 7] was 0.0 events per 1,000 subjects, the “Excess number of events: fall in hemoglobin ≥2 g/dL or transfusion of the equivalent ≥2 units” value [2, 7] was 15.6 events per 1,000 subjects and the “Excess number of events: fatal or critical site bleeding” value [2, 7] was 0.0 events per 1,000 subjects. The “Excess number of events: ischemic stroke” value [2, 7] was −29.4 events per 1,000 subjects, the “Excess number of events: major and clinically relevant non-major bleeding” value [2, 7] was −10.1 events per 1,000 subjects and the “Excess number of events: major bleeding (primary safety outcome)” value [2, 7] was 15.6 events per 1,000 subjects. For the same compound, the “Excess number of events: pulmonary embolism” value [2, 7] was 15.6 events per 1,000 subjects, the “Excess number of events: trivial (minimal) bleeding” value [2, 7] was −24.8 events per 1,000 subjects and the “Excess number of events: venous thromboembolism” value [2, 7] was −43.2 events per 1,000 subjects. The “Excess number of events: venous thrombosis” value [2, 7] was −58.8 events per 1,000 subjects, the “NNH: CRNM bleeding” value [2, 8] was −39 and the “NNH: major and clinically relevant non-major bleeding” value [2, 8] was −99. The “NNH: trivial (minimal) bleeding” value [2, 8] was −41, the “NNT: any thrombotic event (primary efficacy outcome)” value [2, 8] was −14 and the “NNT: ischemic stroke” value [2, 8] was −34. The “NNT: venous thromboembolism” value [2, 8] was −24, the “NNT: venous thrombosis” value [2, 8] was −17 and the “NNH: SAEs” value [2, 9] was 21. The “NNH: fall in hemoglobin ≥2 g/dL or transfusion of the equivalent ≥2 units” value [2, 9] was 64, the “NNH: major bleeding (primary safety outcome)” value [2, 9] was 64 and the “NNT: pulmonary embolism” value [2, 9] was 64. The “Less events of clinically relevant non-major bleeding expected than with aspirin” value [2, 10] was 25 events, the “More events of ISTH major bleeding expected than with aspirin” value [2, 10] was 16 events and the “Thrombotic events (primary efficacy outcome) expected to be prevented compared with aspirin” value [2, 10] was 73 events. The “AUC24h,ss geometric mean (90% CI)” value ([3]; Adult reference ODIXa-HIP-OD) was 1494 ng·h/mL, the “AUC24h,ss median (range)” value ([3]; Adult reference) was 1452 ng·h/mL and the “Cmax,ss geometric mean (90% CI)” value ([3]; Adult reference) was 125.8 ng/mL. The “Cmax,ss median (range)” value ([3]; Adult reference) was 127.6 ng/mL, the “Ctrough,ss geometric mean (90% CI)” value ([3]; Adult reference) was 13.9 ng/mL and the “Ctrough,ss median (range)” value ([3]; Adult reference) was 14.3 ng/mL. The “AEs related to Study Agent, n (%)” value ([4]; Part A N=12, safety set) was 3 (25.0%), the “SAEs related to Study Agent, n (%)” value ([4]; Part A N=12, safety set) was 0 and the “TEAEs resulting in Permanent Discontinuation of Study Agent, n (%)” value ([4]; Part A N=12, safety set) was 0. For the same compound, the “Adverse event: Pleural Effusion, % of participants” value [4, 11] was “(25%)”, the “Adverse event: Pleural Effusion, n (%)” value [4, 11] was 3 and the “All TESAEs (subjects with 1 or more serious adverse events), % of subjects” value [4, 11] was “(50%)”. For the same compound, the “Serious adverse event: Infections, % of participants” value [4, 11] was “(25%)”, the “Serious adverse event: Infections, n (%)” value [4, 11] was 3 and the “Serious adverse event: Pleural Effusion, % of participants” value [4, 11] was “(17%)”. For the same compound, the “Serious adverse event: Pleural Effusion, n (%)” value [4, 11] was 2, the “Serious adverse event: Respiratory, Thoracic, and Mediastinal Disorders, % of participants” value [4, 11] was “(17%)” and the “Serious adverse event: Respiratory, Thoracic, and Mediastinal Disorders, n (%)” value [4, 11] was 2. The “TEAE: Gastrointestinal Disorders, n (%)” value [4, 11] was 6, the “TEAE: General Disorders and Administration Site Conditions, n (%)” value [4, 11] was 1 and the “TEAE: Injury, Poisoning, and Procedural Complications, n (%)” value [4, 11] was 4. For the same compound, the “TEAE: Respiratory, Thoracic, and Mediastinal Disorders, n (%)” value [4, 11] was 5, the “TEAE: Skin and Subcutaneous Tissue Disorders, n (%)” value [4, 11] was 3 and the “TEAE: Vascular Disorders, n (%)” value [4, 11] was 2. The “Study treatment discontinued due to adverse event of mood disturbance, subjects n (%)” value ([4]; Part B rivaroxaban N=64) was 1 (1.6%), the “AEs related to Study Agent, n (%)” value [4, 12] was 20 (31.3%) and the “SAEs related to Study Agent, n (%)” value [4, 12] was 1 (1.6%). For the same compound, the “TEAEs resulting in Permanent Discontinuation of Study Agent, n (%)” value [4, 12] was 2 (3.1%), the “All TEAEs (subjects with 1 or more), n (%)” value [4, 13] was 55 (85.9%) and 55 (86%) and the “All TESAEs (subjects with 1 or more serious adverse events), n (%)” value [4, 13] was 18 (28.1%) and 18 (28%). For the same compound, the “Serious adverse event: Infections, n (%)” value [4, 13] was 5 (8%), the “Serious adverse event: Pleural Effusion, n (%)” value [4, 13] was 9 (14%) and the “Serious adverse event: Respiratory, Thoracic, and Mediastinal Disorders, n (%)” value [4, 13] was 9 (14%). For the same compound, the “TEAE: Gastrointestinal Disorders, n (%)” value [4, 13] was 19 (29.7%) and 19 (30%), the “TEAE: General Disorders and Administration Site Conditions, n (%)” value [4, 13] was 17 (26.6%) and 17 (27%) and the “TEAE: Injury, Poisoning, and Procedural Complications, n (%)” value [4, 13] was 18 (28.1%) and 18 (28%). For the same compound, the “TEAE: Respiratory, Thoracic, and Mediastinal Disorders, n (%)” value [4, 13] was 29 (45.3%) and 29 (45%), the “TEAE: Skin and Subcutaneous Tissue Disorders, n (%)” value [4, 13] was 19 (29.7%) and 19 (30%) and the “TEAE: Vascular Disorders, n (%)” value [4, 13] was 3 (4.7%) and 3 (5%). The “SAEs, % of subjects” value [4, 14] was “(28.1%)”, the “SAEs, No. of subjects with event” value [4, 14] was 18/64 and the New safety signals ([4]; UNIVERSE study) was “no new safety signals”. The “Individual values for AUCss,24h, Cmax,ss and Ctrough,ss vs adult reference range” value ([5]; UNIVERSE Part A) was “within the adult reference range”, the “AUC24h,ss geometric mean (90% CI)” value [5, 15] was 1698 ng·h/mL and the “AUC24h,ss median (range)” value [5, 15] was 1718 ng·h/mL. For the same compound, the “Cmax,ss median (range)” value [5, 15] was 121.8 ng/mL, the “Ctrough,ss geometric mean (90% CI)” value [5, 15] was 28.6 ng/mL and the “Ctrough,ss median (range)” value [5, 15] was 29 ng/mL. For the same compound, the “AUC24h,ss geometric mean (90% CI)” value [5, 16] was 1440 ng·h/mL, the “Cmax,ss geometric mean (90% CI)” value [5, 16] was 109.0 ng/mL and the “Cmax,ss median (range)” value [5, 16] was 113.3 ng/mL. For the same compound, the “Ctrough,ss geometric mean (90% CI)” value [5, 16] was 22.8 ng/mL, the “Ctrough,ss median (range)” value [5, 16] was 23.2 ng/mL and the “Body weight exponent for Vc/F” value [5, 17] was 1.20. The “First-order absorption rate constant” value [5, 17] was 1.12 h⁻¹, the “CL/F (population PK estimate)” value [5, 18] was 3.30 L/h and the “Q/F (population PK estimate)” value [5, 18] was 1.09 L/h. The “Vc/F (population PK estimate)” value [5, 18] was 17.6 L, the “PT vs rivaroxaban concentration compared with adult reference” value [6] was “within the 99% prediction range observed in the adult reference studies” and the “aPTT vs rivaroxaban concentration compared with adult reference” value [6] was “within the 99% prediction range observed in the adult reference studies; also recorded: less steep in comparison to adult reference”.
